The target of series [1] is T1, MMP-9 (catalytic domain, human, recombinant) (Homo sapiens, UniProt P14780).
T1 construct: MMP-9 (catalytic domain, human, recombinant); purchased BIOMOL International
Briefly: MMP-9 fluorescence-based inhibition assay with and without β-glucosidase. Type of series: biochemical. The conditions noted are these: for inhibition of MMP-9 when exposed to β-glucosidase: 1 mM for 2, 4 mM for 4, 125 μM for 6; for inhibition of MMP-9 in the absence of β-glucosidase: 1 mM for 2, 4 mM for 4, 125 μM for 6, 16 μM for 8. As for the experimental part:
MMP-9 (catalytic domain, human, recombinant), MMP-8 (catalytic domain, human, recombinant), and the assay kit were purchased from BIOMOL International. The assays were carried out according to the procedure provided with the kit. MMP activity was measured in 96-well plates using a Bio-Tek Flx 800 fluorescent plate reader. The ZBGs and their protected analogs were dissolved in DMSO and diluted in HEPES buffer (50 mM, pH 7.5) to a concentration of 10 mM for 1-2, 40 mM for 3-4, and 1.25 mM for 5-6. Each well contained 20 μL, of MMP-9 (0.45 U/mL), inhibitor (10 μL, of 1-6), 5 μL, of β-glucosidase (1 U/μL) when used, and buffer for a total volume of 99 μL. These were incubated for 1 h at 37° C. […] The reaction was initiated by the addition of 1 μL (400 μM) of the fluorescent substrate (Mca-Pro-Leu-Gly-Leu-Dpa-Ala-Arg-NH2 where Mca=(7-methoxycoumarin-4-yl)-acetyl and Dpa=N-3-(2,4-dinitrophenyl)-L-α-β-diaminopropionyl)) and kinetic activity was measured every minute for 30 min with excitation and emission wavelengths at 335 nm and 405 nm, respectively. Enzyme activity with inhibitor was calculated with respect to the control experiment (no inhibitor present). Measurements were performed in duplicate in two independent experiments.
For Cmpds 7 and 8, 1 mL sample in HEPES buffer at a concentration of 1 mM was incubated at 37° C. with 250 U of β-glucosidase (1 U/μL) for 4 h giving a final concentration of 0.8 mM of the inhibitor. After 4 h, a 200 μL aliquot was collected and filtered through a microcentrifuge filter. UV-Vis absorption spectroscopy was to verify that the concentration of 1,2-HOPO-2 was 0.71±0.2 mM in each of the samples using the extinction coefficient for 1,2-HOPO-2 (7) calculated at 346 nm (4,279.3±372 M-1 cm-1). Each well was made up with 20 μL of MMP-9 (0.45 U/mL), inhibitor (2 μL, for 7 and 8), and buffer for a total volume of 99 μL. These were incubated for 30 min at 37° C. For MMP-8 inhibition assays, each of the samples was diluted to 1 μM in HEPES buffer and 15 μL of each were added to 20 μL of MMP-8 (0.092 U/mL) and buffer for a total of 99 μL. The reaction was initiated by the addition of 1 μL (400 μM) of the fluorescent substrate and kinetic activity was measured every minute for 30 min with excitation and emission wavelengths at 335 nm and 405 nm, respectively. Enzyme activity with inhibitor was calculated with respect to the control experiment (no inhibitor present). A control sample was also performed, in which an aliquot of 250 U of β-glucosidase (1 U/μL) with 1 mL of HEPES buffer was incubated for 4 h at 37° C., filtered through a microcentrifuge filter, and evaluated in the MMP assay to confirm that no inhibition is observed with β-glucosidase. Measurements were performed in duplicate in two independent experiments. […]

Series [2] is described as follows: Hydrolytic stability of boronic ester compounds in HEPES buffer. It is filed as physicochemical. The note with it: for hydrolytic stability in buffer: 4 h period. As for the experimental part:
(§1) Absorption spectra of compounds B1-B16 were taken on a Perkin-Elmer Lambda 25 UV-visible spectrophotometer. To a 1.0 mL solution at 0.05 mM concentration in HEPES buffer (50 mM, pH 7.5) was added H2O2 (10 uL (0.09 M) in HEPES for compounds B1-B12 and B14-B16, 10 uL (0.9 M) in HEPES for compound B3, and 2.8 uL (0.09 M) in HEPES for compound B13). Spectra were monitored over time at room temperature. Absorption spectra of compounds B17-B21 were taken on a Perkin-Elmer Lambda 25 UV-visible spectrophotometer. To a 1.0 mL solution at 0.05 mM concentration of compounds 1-7 in HEPES buffer (50 mM, pH=7.5) was added H2O2 (10 uL, 0.09 M in HEPES) or KO2 (0.10 mM) with catalase (5 U). Hydrolytic stability was measured by monitoring samples of B19-B21 in HEPES buffer for a 24 h time period. Spectra were monitored over time at room temperature.

Series [3] is described as follows: Cleavage of boronic ester/acid protected compounds by H2O2 (UV-Vis, rate constant, HPLC). Type of series: physicochemical. The conditions noted are these: for k, pseudo first-order rate constants calculated with an excess of H2O2: 50 μM in HEPES buffer pH 7.5, room temperature. As for the experimental part:
as §1
The pseudo-first order rate constant was calculated by monitoring the absorption spectra over time in the presence of excess hydrogen peroxide. To a 1.0 mL solution of compounds B1-B3 and B10-B14 in HEPES buffer (50 mM, pH 7.5) at 50 μM was added H2O2 to final concentrations of 150 μM, 250 μM, 500 μM, 750 μM, and 900 μM. Spectra were monitored over 15-30 min at room temperature with at least 50 spectra recorded. The change in absorption at 302 nm for B1-B3, 272 nm for B10, 312 nm for B11, 268 for B12, 306 nm for B13, and 303 nm for B14 were monitored. For compounds B1-B3 and B10-B11, the rate constant (kobs) was found from monitoring the appearance of the monitored absorption peak by plotting the linear slope of ln [(A∞−At)/(A∞)] vs. time (where A∞ is the absorbance of a 50 μM sample of the methyl salicylate for B1-B3, maltol for B10, and 1,2-HOPO for B11). For compounds B12-B14 the rate constant (kobs) was found from monitoring the disappearance of the monitored absorption peak by plotting the linear slope of ln [(A−AZBG)/(A0−AZBG)] vs. time (where AZBG is the absorbance of a 50 μM sample of the ZBG and A0 is the initial absorbance of […]).^3 The rate of conversion was determined from the slope of the line of kobs vs. [H2O2]. The pseudo-first order rate constant was calculated following literature procedure.^[15] To a 1.0 mL solution of compounds B19-B21 in HEPES buffer at 50 μM was added H2O2 to final concentrations of 150 μM, 250 μM, 500 μM, 750 μM, and 900 μM. Spectra were monitored over 15-30 min at room temperature with at least 50 spectra recorded. The change in absorption at 292 nm for B19 and 252 nm for B20 and B21 were monitored. The rate constant (kobs) was found from the linear slope of ln [(A−AZBG)/(A0−AZBG)] vs. time (where AZBG is the absorbance of a 50 μM sample of the ZBG and A0 is the initial absorbance of B19-B21). The rate of conversion was determined from the slope of the line of kobs vs. [H2O2].
Analytical HPLC was performed on a HP Series 1050 system equipped with a Vydac® C18 reverse phase column (218 TP, 250×4.6 mm, 5 μm). […] Starting with 95% A and 5% B, an […] gradient was run for 15 min to a final solvent mixture of 5% A and 95% B, which was held for 5 min before ramping back down to 95% A and 5% B in 2 min and holding for an additional 4 min. Compounds were prepared in HEPES buffer (50 mM, pH 7.5) at a concentration of 1 mM. Retention times of compounds were determined under identical HPLC conditions prior to and after reaction with H2O2. LC-MS(+) was performed on compounds B6, B15 and B16 to confirm cleavage of the boronic ester to the phenolic moiety.

A short description of series [4]: Hydrolytic stability of sulfonate esters in HEPES buffer. It is filed as physicochemical. Here is the method: Absorption spectra of compounds were taken on a Perkin-Elmer Lambda 25 UV-Visible Spectrophotometer. To a 1.0 mL solution at 0.05 mM concentration of each compound in HEPES buffer (50 mM, pH 7.5) was added H2O2 (10 μL, 0.09M in HEPES) and absorption spectra were monitored over time at room temperature. Hydrolytic stability was measured by monitoring each sample in HEPES buffer over a 24 hour time period.

Some results are limits rather than exact numbers.

T1 sequence (P14780 107-444 limits assumed): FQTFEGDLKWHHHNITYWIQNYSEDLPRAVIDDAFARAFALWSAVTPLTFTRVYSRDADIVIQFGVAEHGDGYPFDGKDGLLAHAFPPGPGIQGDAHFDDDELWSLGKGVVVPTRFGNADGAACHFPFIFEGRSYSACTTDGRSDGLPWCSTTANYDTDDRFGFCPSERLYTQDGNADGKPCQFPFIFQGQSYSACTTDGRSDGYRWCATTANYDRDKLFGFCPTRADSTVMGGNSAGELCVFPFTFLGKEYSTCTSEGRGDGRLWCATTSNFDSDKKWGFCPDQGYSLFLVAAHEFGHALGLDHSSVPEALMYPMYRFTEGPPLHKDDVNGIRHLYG

`Cc1occc(=O)c1OC1OC(CO)C(O)C(O)C1O` [Compound 4, 2-Methyl-4H-pyran-4-one-3-β-D-glucopyranoside]: in series [1], the “inhibition of MMP-9 when exposed to β-glucosidase” value (“inhibition of MMP-9 when exposed” for short) is on record as “complete restoration of inhibition” and the “inhibition of MMP-9 in the absence of β-glucosidase” value (shortened to “inhibition … of β-glucosidase”) is “attenuated inhibition”. On to `COC(=O)c1ccccc1OC(=O)OCc1ccc(B2OC(C)(C)C(C)(C)O2)cc1` [Compound B2, Methyl 2-((((4-(4,4,5,5-tetramethyl-1,3,2-dioxaborolan-2-yl)benzyl)oxy)carbonyl)oxy)benzoate], for which the “hydrolytic stability in buffer” value in series [2] is recorded as “spontaneous hydrolytic cleavage”. Further, in series [3], the “k, pseudo first-order rate constants calculated with an excess of H2O2” value was 2.7 ± 0.1 M⁻¹ s⁻¹. As for `COC(=O)c1ccccc1B1OC(C)(C)C(C)(C)O1` [Compound B3, Methyl 2-(4,4,5,5-tetramethyl-1,3,2-dioxaborolan-2-yl)benzoate], the “hydrolytic stability in buffer” value in series [2] is given as “comparable to the ether linkage used in B1”. The “k, pseudo first-order rate constants calculated with an excess of H2O2” value in series [3] is 0.031 ± 0.002 M⁻¹ s⁻¹. Turning to `CC1(C)OB(c2ccc(COc3cccccc3=O)cc2)OC1(C)C` [Compound B13, 2-((4-(4,4,5,5-Tetramethyl-1,3,2-dioxaborolan-2-yl)benzyl)oxy)cyclohepta-2,4,6-trienone], in series [3], the “k, pseudo first-order rate constants calculated with an excess of H2O2” value was 2.9 ± 0.1 M⁻¹ s⁻¹.

On to `O=c1ccccn1OC1OC(CO)C(O)C(O)C1O` [Compound 2, 1-Hydroxypyridin-2(1H)-one-β-D-glucopyranoside], for which, in series [1], the “inhibition of MMP-9 when exposed” value is on record as “complete restoration of inhibition” and the “inhibition … of β-glucosidase” value is given as “attenuated inhibition”. As for `Cc1occc(=S)c1OC1OC(CO)C(O)C(O)C1O` [Compound 6, 2-Methyl-4H-pyran-4-thione-3-β-D-glucopyranoside], in series [1], the “inhibition of MMP-9 when exposed” value is given as “complete restoration of inhibition” and the “inhibition … of β-glucosidase” value is on record as “attenuated inhibition”. Take `O=c1ccccn1OS(=O)(=O)c1ccc([N+](=O)[O-])cc1[N+](=O)[O-]` [PZBG-1d, 2-Oxopyridin-1(2H)-yl 2,4-dinitrobenzenesulfonate]: in series [4], the “stability in aqueous buffer in the absence of H2O2” value is “rapid hydrolytic cleavage”. Turning to `COC(=O)c1ccccc1OCc1ccc(B2OC(C)(C)C(C)(C)O2)cc1` [Compound B1, Methyl 2-((4-(4,4,5,5-tetramethyl-1,3,2-dioxaborolan-2-yl)benzyl)oxy)benzoate], in series [2], the “hydrolytic stability in buffer” value is reported as “stable”. The “k, pseudo first-order rate constants calculated with an excess of H2O2” value in series [3] is 1.12 ± 0.04 M⁻¹ s⁻¹. For `CC1(C)OB(c2ccc(COc3cccc4cccnc34)cc2)OC1(C)C` [Compound B14, 8-((4-(4,4,5,5-Tetramethyl-1,3,2-dioxaborolan-2-yl)benzyl)oxy)quinoline], in series [3], the “k, pseudo first-order rate constants calculated with an excess of H2O2” value was 4.1 ± 0.2 M⁻¹ s⁻¹. Turning to `Cc1occc(=O)c1OC(=O)OCc1ccc(B2OC(C)C(C)(C)O2)cc1` (stereo not drawn) [Compound B21, 2-methyl-4-oxo-4H-pyran-3-yl 4-(4,4,5-trimethyl-1,3,2-dioxaborolan-2-yl)benzyl carbonate], the hydrolysis in buffer in series [2] (24 h time period) is on record as above 50%. The “rate constant of conversion with an excess of H2O2” value in series [3] (pseudo-first order conditions, HEPES buffer) was 6.7 M⁻¹ s⁻¹.

On to `Cc1c(OCc2ccc(B3OC(C)(C)C(C)(C)O3)cc2)c(=O)ccn1C` [Compound B12, 1,2-Dimethyl-3-((4-(4,4,5,5-tetramethyl-1,3,2-dioxaborolan-2-yl)benzyl)oxy)pyridin-4(1H)-one], for which the “k, pseudo first-order rate constants calculated with an excess of H2O2” value in series [3] was 3.5 ± 0.3 M⁻¹ s⁻¹.

Source of the values: patent publication US8889638B2, “Stimulus-triggered prodrugs” (The Regents of the University of California, priority 2010, dated 2014).
